In patent US20250009769A1, “USE OF LYSOPHOSPHATIDIC ACID (LPA) IN CONTROLLING PORCINE INFECTIOUS DIARRHEA” (SICHUAN AGRICULTURAL UNIVERSITY, priority 2023, published 2025):
Marks after values point to notes of the source that are not given here.

How the values were obtained:
[1] = tested on: ETEC; assay: Diarrhea rate caused by Escherichia coli in weaned piglets, dietary 0.2% LPA (Example 2); format: in vivo, DLY weaned piglets; settings: ETEC + LPA group: 0.2% LPA in diet
Protocol: 21-day-old DLY weaned piglets were selected, with an average weight of (6.23±0.82) kg.
In the experiment, 24 piglets were divided into 3 groups, each group had 8 replicates, and the experimental period was 21 d. […] Slaughtering and sampling were conducted on the morning of day 21 of the experiment.

[2] = tested on: ETEC; assay: Intestinal tissue morphology of piglets infected with ETEC, dietary 0.3% LPA (Example 1); format: in vivo, DLY weaned piglets; settings: for Duodenum V/C ratio / Ileum V/C ratio / Jejunum V/C ratio: villus height/crypt depth
Protocol: (§1) 25-day-old DLY weaned piglets were selected, with an average weight of (7.24±0.07) kg.
(§2) In the experiment, 32 piglets were divided into 4 groups with 8 replicates in each group, and the experimental period was 21 d. […] Slaughtering and sampling were conducted on the morning of day 21 of the experiment.
ETEC challenge reduced villus height and V/C in the duodenum and ileum (P<0.05), and increased crypt depth in the ileum (P<0.05). […] Furthermore, the LPA reduced the crypt depth and increased the villus height/crypt depth (V/C) ratio in the ileum of ETEC-challenged piglets (P<0.05).

[3] = tested on: ETEC; assay: Intestinal permeability of piglets infected with ETEC, dietary 0.3% LPA (Example 1); format: in vivo, DLY weaned piglets
Protocol: as §1, §2

[4] = tested on: ETEC; assay: Diarrhea rate and diarrhea index of weaned piglets after ETEC challenge, dietary 0.3% LPA (Example 1); format: in vivo, DLY weaned piglets
Protocol: as §1, §2

[5] = parameters: species or system DLY weaned piglets; settings: in vivo
Protocol: as §1, §2

[6] = LPA + ETEC group: 0.3% LPA, ETEC challenge
[7] = LPA + ETEC group: diet with 0.3% LPA, ETEC challenge on day 18
[8] = LPA group: diet with 0.3% LPA, saline instead of ETEC

## CCCCCCCC/C=C\CCCCCCCC(=O)OC[C@@H](O)COP(=O)([O-])[O-].[Na+].[Na+] [LPA, 1-oleoyl-sn-glycerol 3-phosphate sodium salt]
[1]; after challenge
  Diarrhea index: 1.98^b
  Diarrhea rate: 33.56 ± 0.28^b %
[1]; before challenge
  Diarrhea index: 1.68
  Diarrhea rate: 11.86 ± 0.15^b %
[2]; [6]
  Duodenum crypt depth: 273.45 ± 9.78 ^ μm
  Duodenum villus height: 452.55 ± 11.68^b μm
  Ileum crypt depth: 170.08 ± 4.12^b μm
  Ileum villus height: 378.37 ± 13.76^a μm
  Jejunum crypt depth: 177.98 ± 6.30 ^ μm
  Jejunum villus height: 360.56 ± 10.87 ^ μm
  Duodenum V/C ratio: 1.65 ± 1.19^b
  Ileum V/C ratio: 2.22 ± 3.34^b
  Jejunum V/C ratio: 2.02 ± 1.73^
[2]; LPA group: 0.3% LPA, no ETEC
  Duodenum crypt depth: 270.03 ± 8.13 μm
  Duodenum villus height: 493.34 ± 12.43^a μm
  Ileum crypt depth: 150.45 ± 4.89^b μm
  Ileum villus height: 401.46 ± 13.45^a μm
  Jejunum crypt depth: 160.98 ± 3.23 μm
  Jejunum villus height: 377.28 ± 9.89 μm
  Duodenum V/C ratio: 1.83 ± 1.53^a
  Ileum V/C ratio: 2.67 ± 2.75^a
  Jejunum V/C ratio: 2.34 ± 3.06
[3]; [6]
  D-lactic acid: 1.53 ± 0.93^b mg/L
  DAO: 335.62 ± 14.23^b pg/mL
  Fluid accumulation rate: 1.42 ± 0.68^b
  LPS: 49.13 ± 2.56^b ng/L
[3]; LPA group: 0.3% LPA, no ETEC
  D-lactic acid: 1.69 ± 0.22^b mg/L
  DAO: 330.43 ± 12.78^b pg/mL
  Fluid accumulation rate: 1.32 ± 1.21^b
  LPS: 48.23 ± 5.23^b ng/L
[4]; [7]
  Diarrhea index: 0.75 ± 0.56^b
  Diarrhea rate: 37.50 ± 27.99^b %
[4]; [8]
  Diarrhea index: 0.00 ± 0.00^c
  Diarrhea rate: 0.00 ± 0.00^c %
[5]
  Impact on piglet growth performance: no significant negative impact on piglet growth performance
